Experimental data from US7704991B2, “Substituted diazabicyclo derivatives and their use as monoamine neurotransmitter re-uptake inhibitors” (Neurosearch A/S, priority 2005, dated 2010).
Counter-ions that a name gives are not always drawn. Like-named read-outs stand apart in the source and are kept apart here.

Assays:
[1] = target: T1, noradrenaline (NA) reuptake in synaptosomes (Rattus norvegicus, UniProt Q63380); experiment: In vitro inhibition of noradrenaline (NA) reuptake in synaptosomes; assay type: biochemical
T1 construct: in synaptosomes as described in WO 97/16451; from tissue
T1 sequence (Q63380 1-617): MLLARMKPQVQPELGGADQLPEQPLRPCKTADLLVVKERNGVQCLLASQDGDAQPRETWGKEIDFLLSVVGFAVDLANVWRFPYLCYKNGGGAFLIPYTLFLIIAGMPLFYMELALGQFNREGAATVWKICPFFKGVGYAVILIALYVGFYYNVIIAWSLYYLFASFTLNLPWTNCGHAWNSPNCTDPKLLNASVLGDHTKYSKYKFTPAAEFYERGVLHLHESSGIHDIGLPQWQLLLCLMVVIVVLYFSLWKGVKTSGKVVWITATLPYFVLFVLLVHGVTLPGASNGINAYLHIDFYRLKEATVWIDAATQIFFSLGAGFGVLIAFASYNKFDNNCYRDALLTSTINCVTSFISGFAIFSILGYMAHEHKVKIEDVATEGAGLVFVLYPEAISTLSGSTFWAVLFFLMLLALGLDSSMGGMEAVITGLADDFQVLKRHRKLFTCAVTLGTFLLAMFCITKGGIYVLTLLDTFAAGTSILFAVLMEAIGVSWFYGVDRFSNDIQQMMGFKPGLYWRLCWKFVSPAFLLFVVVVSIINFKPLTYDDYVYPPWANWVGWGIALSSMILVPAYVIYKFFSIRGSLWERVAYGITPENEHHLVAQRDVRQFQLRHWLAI

[2] = target: T2, dopamine (DA) reuptake in synaptosomes (Rattus norvegicus, UniProt P23977); experiment: In vitro inhibition of dopamine (DA) reuptake in synaptosomes; assay type: biochemical
T2 construct: in synaptosomes as described in WO 97/16451; from tissue
T2 sequence (P23977 whole entry): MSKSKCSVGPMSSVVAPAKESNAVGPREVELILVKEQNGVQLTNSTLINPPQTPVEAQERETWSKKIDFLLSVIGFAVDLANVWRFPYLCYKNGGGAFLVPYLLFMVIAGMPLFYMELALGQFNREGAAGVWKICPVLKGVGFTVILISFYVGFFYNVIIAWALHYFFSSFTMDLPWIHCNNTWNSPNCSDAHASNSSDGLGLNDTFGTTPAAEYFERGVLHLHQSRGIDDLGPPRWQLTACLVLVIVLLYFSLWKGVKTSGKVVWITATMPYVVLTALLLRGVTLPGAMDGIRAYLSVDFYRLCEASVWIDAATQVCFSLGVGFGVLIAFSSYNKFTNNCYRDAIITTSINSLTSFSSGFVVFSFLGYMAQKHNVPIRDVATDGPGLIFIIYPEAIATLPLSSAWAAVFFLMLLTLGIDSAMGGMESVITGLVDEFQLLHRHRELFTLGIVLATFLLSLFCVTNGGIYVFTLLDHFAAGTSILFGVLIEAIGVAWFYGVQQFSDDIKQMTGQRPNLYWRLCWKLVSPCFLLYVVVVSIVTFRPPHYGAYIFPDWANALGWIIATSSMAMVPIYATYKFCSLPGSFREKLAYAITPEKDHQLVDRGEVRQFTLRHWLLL

[3] = target: T3, serotonine (5-HT) reuptake in synaptosomes (Rattus norvegicus, UniProt P31652); experiment: In vitro inhibition of serotonine (5-HT) reuptake in synaptosomes; assay type: biochemical
T3 construct: in synaptosomes as described in WO 97/16451; from tissue
T3 sequence (P31652 whole entry): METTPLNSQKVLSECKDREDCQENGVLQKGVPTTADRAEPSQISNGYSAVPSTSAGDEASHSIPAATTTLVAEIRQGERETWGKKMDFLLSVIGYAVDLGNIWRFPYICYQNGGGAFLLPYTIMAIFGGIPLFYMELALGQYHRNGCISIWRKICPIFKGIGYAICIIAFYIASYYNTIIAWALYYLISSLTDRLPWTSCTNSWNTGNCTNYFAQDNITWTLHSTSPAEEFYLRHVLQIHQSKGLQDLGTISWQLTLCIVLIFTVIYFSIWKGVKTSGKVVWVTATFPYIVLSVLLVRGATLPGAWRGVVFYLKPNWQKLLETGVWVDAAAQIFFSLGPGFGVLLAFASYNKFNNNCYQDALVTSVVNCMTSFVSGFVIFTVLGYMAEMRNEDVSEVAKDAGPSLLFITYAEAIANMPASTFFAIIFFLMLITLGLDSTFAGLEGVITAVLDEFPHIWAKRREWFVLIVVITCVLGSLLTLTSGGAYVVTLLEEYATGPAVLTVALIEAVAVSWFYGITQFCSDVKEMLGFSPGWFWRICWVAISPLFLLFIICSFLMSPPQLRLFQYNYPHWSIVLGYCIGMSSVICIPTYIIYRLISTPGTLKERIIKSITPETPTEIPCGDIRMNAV
Protocol: A number of compounds were tested for their ability to inhibit the reuptake of the monoamine neurotransmitters dopamine (DA) noradrenaline (NA) and serotonine (5-HT) in synaptosomes as described in WO 97/16451.
The test values are given as IC50 (the concentration (μM) of the test substance which inhibits the specific binding of ^3H-DA, ^3H-NA, or ^3H-5-HT by 50%).

[4] = synaptosomes, 3H-NA, read-out: NA-uptake IC50
[5] = synaptosomes, 3H-DA, read-out: DA-uptake IC50

SMILES | melting point [°C] | IC50 [1, 4] [nM] | IC50 [2, 5] [nM] | IC50 [3] [nM] | also measured
COc1ccc2cc(N3CC4CCC(C3)N4C)ccc2c1 (as salt: fumaric acid salt) [1st compound of method B, 3-(6-Methoxy-naphthalen-2-yl)-8-methyl-3,8-diaza-bicyclo[3.2.1]octane] | 204 to 206 | – | – | – | –
CN1C2CCC1CN(c1ccc3ccccc3n1)C2 (as salt: fumaric acid salt) [2nd compound of method A, 2-(8-Methyl-3,8-diaza-bicyclo[3.2.1]oct-3-yl)-quinoline] | 210 to 212 | – | – | – | –
CN1C2CCC1CN(c1ccc3cc([N+](=O)[O-])ccc3n1)C2 [1st compound of method A, 2-(8-Methyl-3,8-diaza-bicyclo[3.2.1]oct-3-yl)-6-nitro-quinoline] | 152.1 to 154.5 | 4600 | 16000 | 3.1 | –
COc1ccc2cc(N3CC4CCC(C3)N4C)ccc2c1 [1st compound of method B, 3-(6-Methoxy-naphthalen-2-yl)-8-methyl-3,8-diaza-bicyclo[3.2.1]octane] | – | – | – | – | IC50 [1]: 20 nM; IC50 [2]: 56 nM; IC50 ([3]; synaptosomes, 3H-5-HT, read-out: 5-HT-uptake IC50): 20 nM
CN1C2CCC1CN(c1ccc3ccccc3n1)C2 [2nd compound of method A, 2-(8-Methyl-3,8-diaza-bicyclo[3.2.1]oct-3-yl)-quinoline] | – | 450 | 1600 | 16 | –
